Laboratory results from US10723813B2, “PDGF-B /PDGF-BB binding variants of heparan sulfates” (Agency for Science, Technology and Research, priority 2015, dated 2020).
Entries after “also recorded” stand apart in the source; their conditions may differ.

Key:
Format in all cases: cell-based
[1] = test system: human dermal fibroblasts (HDFs); test: In vitro proliferation of HDFs (Example 15), with or without PDGFR/FGFR1 inhibitors; settings: FIG. 30
Experimental: FIG. 29. Charts showing proliferative effect of PDGF-BB and HS6 on human dermal fibroblasts: (A) PDGF-BB (1, 2.5, 5, 10, 25 ng/ml), (B) HS6 (0.25, 0.5, 1, 2.5, 5, 10, 25 μg HS6), (C) 2.5 ng PDGF-BB+HS6 (0, 0.25, 0.5, 1, 2.5, 5, 10, 25 μg).
FIG. 30. Charts showing effect of PDGFR and FGFR inhibition. (A) Effect of PDGFR inhibitor JNJ-10198409; (B) Effect of FGFR1 inhibitor SU5402.

[2] = test system: human dermal fibroblast (HDF); test: HDF migration scratch assay (IncuCyte)
Experimental: Migration Protocol: • 1. Seed 10,000 HDF per well in maintenance media, into a 96 well ImageLock plate. • 2. After 24 hrs, change media to 1% α-MEM • 3. Once cells are confluent, scratch the surface using the wound maker and wash once with PBS. • 4. Add 100 μl of treatment media into each well and place plate into IncuCyte and run for 40 hours. • 5. Program is set up to take photo every 2 hours. Results:
The migration protocol from Example 11 was followed using a range of HS6+ doses (20 μg/mL, 40 μg/mL, 60 μg/mL) with 5 ng/ml PDGF-BB.

[3] = test system: human N-TERT/1 keratinocytes; test: Scratch wound assay on keratinocytes; settings: confluent N-TERT/1, IncuCyte; increasing amounts (FIG. 31)
[4] = test system: human dermal fibroblast (HDF); test: HDF proliferation (Guava Viacount, 72 hrs)
Experimental: Proliferation Protocol: • 1. Thaw human dermal fibroblast (HDF, Cascade Biologics) into a T75 in maintenance medium at 5×10^3 cells/cm^2 (α-MEM, 10% FCS, P/S) at 37° C. 5% CO^2 humidified incubator. • 2. At 70-80% confluence, wash cells in PBS twice, add 1 ml of 0.125% trypsin and incubate for 3 mins. Tap the dish and stop the trypsin by adding 5 ml of medium. Centrifuge cells down at 180 g for 7 mins. • 3. Count total number of cells. • 4. Seed cells at 500 μl of 3000 cells/cm^2 cell suspension per well and place the plates into the incubator for 24 hrs. • 5. Change media to α-MEM, 1% FCS, P/S media for 24 hrs. • 6. Treat cells with PDGF-BB and HS fractions. • 7. After 72 hrs, wash cells with PBS and add 100 ul of trypsin, incubate for 3 mins. • 8. Add 100 ul of Guava Viacount dye mastermix into each well of trypsinize cells. • 9. Transfer total volume of 200 ul of cells per well into a 96 well Guava plate. Results:
The proliferation protocol described in Example 9 was used.

Molecule	Stimulation of proliferation in the presence of inhibitor [1]	PDGF-BB concentration up to which rate of wound closure increases [2]	Rate of closure at more than 10 ng/mL PDGF-BB [2]	HDF migration, PDGF-BB dosing ([2]; PDGF-BB alone)	Closure of the scratch wound, keratinocytes [3]	HDF proliferation, dosing ([4]; 72 hrs, increasing concentration of the substance)	Optimal concentration for proliferation ([4]; HDF, 72 hrs)	Viability of HDF ([4]; higher concentration of PDGF-BB)
COc1cc2c(cc1OC)-c1[nH]nc(Nc3cccc(F)c3)c1C2 [JNJ-10198409]	very strongly inhibited	–	–	–	–	–	–	–
Cc1c[nH]c(/C=C2\C(=O)Nc3ccccc32)c1CCC(=O)O [SU5402]	also inhibited—but not as strongly	–	–	–	–	–	–	–
PDGF-BB: homodimer of platelet-derived growth factor B; recombinant (R&D)	–	up to 10 ng/mL	does not speed up the rate of closure	induces HDF migration	able to improve the closure	dose dependently increase HDF proliferation; also recorded: dose dependent increase in proliferation	10 ng/mL	decreased viability
